Consider 23 compounds from patent publication US8741907B2, “Alkyl-substituted pyrazolopyrimidines” (Boehringer Ingelheim International GmbH, priority 2002, dated 2014).

Tested on in the first data set: not given
Conditions: not given
`CCOC(=O)CCc1nc2c(cnn2C2CCCC2)c(=O)[nH]1` [Example 18, Ethyl 4-[1-cyclopentyl-4-oxo-4,5-dihydro-1H-pyrazolo[3,4-d]pyrimidin-6-yl]-propionate] came in with a melting point of 185 °C.
Same read-out and setting: the same measure for `O=c1[nH]c(CCCO)nc2c1cnn2C1CCCC1` [Example 2, 1-Cyclopentyl-6-(3-hydroxypropyl)-1,5-dihydro-4H-pyrazolo[3,4-d]pyrimidin-4-one]: 138 °C; for `CCC(CC)n1ncc2c(=O)[nH]c(CC3C=CCC3)nc21` (stereo not drawn): 128 °C; for `CCC(CC)n1ncc2c(=O)[nH]c(CC3CCCC3)nc21` [Example 21, 6-(Cyclopentylmethyl)-1-(1-ethylpropyl)-1,5-dihydro-4H-pyrazolo[3,4-d]pyrimidin-4-one]: 156 °C.
`O=c1[nH]c(CC2C=CCC2)nc2c1cnn2C1CCCC1` (stereo not drawn): the melting point worked out at 166 °C.
Still for that read-out and setting: the same measure for `O=c1[nH]c(CC2CCCCC2)nc2c1cnn2C1CCCC1`: 147 °C.
Same read-out and setting: the same measure for `CCC(CC)n1ncc2c(=O)[nH]c(CC(C)C(F)(F)F)nc21` (stereo not drawn) [Example 22, 1-(1-Ethylpropyl)-6-(3,3,3-trifluoro-2-methylpropyl)-1,5-dihydro-4H-pyrazolo[3,4-d]pyrimidin-4-one]: 156 °C; for `CC(C)CCc1nc2c(cnn2C2CCCC2)c(=O)[nH]1` [Example 5, 1-Cyclopentyl-6-(3-methylbutyl)-1,5-dihydro-4H-pyrazolo[3,4-d]pyrimidin-4-one]: 133 °C; for `CCC(C)Cc1nc2c(cnn2C2CCCC2)c(=O)[nH]1` (stereo not drawn): 86 °C.
`CCOC(=O)CCc1nc2c(cnn2C(CC)CC)c(=O)[nH]1` [Example 14, Ethyl 4-[1-(1-ethylpropyl)-4-oxo-4,5-dihydro-1H-pyrazolo[3,4-d]pyrimidin-6-yl]-propionate]: the melting point came out at 118 °C.
Still for that read-out and setting: the same measure for `CCC(CC)n1ncc2c(=O)[nH]c(CC3CCCO3)nc21` (stereo not drawn) [Example 11, 1-(1-Ethylpropyl)-6-(tetrahydro-2-furanylmethyl)-1,5-dihydro-4H-pyrazolo[3,4-d]-pyrimidin-4-one]: 136 °C.
In turn, `O=c1[nH]c(CC2CCCO2)nc2c1cnn2C1CCCC1` (stereo not drawn) had a melting point of 179 °C.
Compound `CCCc1nc2c(cnn2C(CC)CC)c(=O)[nH]1` [Example 10, 1-(1-Ethylpropyl)-6-propyl-1,5-dihydro-4H-pyrazolo[3,4-d]pyrimidin-4-one] gave a melting point of 127 °C.
`CCC(C)Cc1nc2c(cnn2C(CC)CC)c(=O)[nH]1` (stereo not drawn) [Example 7, 1-(1-Ethylpropyl)-6-(2-methylbutyl)-1,5-dihydro-4H-pyrazolo[3,4-d]pyrimidin-4-one] had a melting point of 121 °C.
Same read-out and setting: the same measure for `CC(Cc1nc2c(cnn2C2CCCC2)c(=O)[nH]1)C(F)(F)F` (stereo not drawn) [Example 23, 1-(1-Cyclopentyl)-6-(3,3,3-trifluoro-2-methylpropyl)-1,5-dihydro-4H-pyrazolo[3,4-d]pyrimidin-4-one]: 166 °C.
On the same count and under the same terms, the same measure for `CCC(CC)n1ncc2c(=O)[nH]c(CCC(C)C)nc21` [Example 8, 1-(1-Ethylpropyl)-6-isopentyl-1,5-dihydro-4H-pyrazolo[3,4-d]pyrimidin-4-one]: 127 °C.
The same measure, in the same setting: the same measure for `CC1CCC(Cc2nc3c(cnn3C3CCCC3)c(=O)[nH]2)CC1` (stereo not drawn) [Example 15, 1-Cyclopentyl-6-[(4-methylcyclohexyl)methyl]-1,5-dihydro-4H-pyrazolo[3,4-d]-pyrimidin-4-one]: 126 °C; for `CCC(CC)n1ncc2c(=O)[nH]c(CC(C)C)nc21` [Example 9, 1-(1-Ethylpropyl)-6-isobutyl-1,5-dihydro-4H-pyrazolo[3,4-d]pyrimidin-4-one]: 161 °C.

The target in another data set is PDE9A (Homo sapiens (Human), UniProt O76083). The following applies: concentrations of up to 100 μM; cited from earlier work.
PDE9A, sequence (O76083 whole entry): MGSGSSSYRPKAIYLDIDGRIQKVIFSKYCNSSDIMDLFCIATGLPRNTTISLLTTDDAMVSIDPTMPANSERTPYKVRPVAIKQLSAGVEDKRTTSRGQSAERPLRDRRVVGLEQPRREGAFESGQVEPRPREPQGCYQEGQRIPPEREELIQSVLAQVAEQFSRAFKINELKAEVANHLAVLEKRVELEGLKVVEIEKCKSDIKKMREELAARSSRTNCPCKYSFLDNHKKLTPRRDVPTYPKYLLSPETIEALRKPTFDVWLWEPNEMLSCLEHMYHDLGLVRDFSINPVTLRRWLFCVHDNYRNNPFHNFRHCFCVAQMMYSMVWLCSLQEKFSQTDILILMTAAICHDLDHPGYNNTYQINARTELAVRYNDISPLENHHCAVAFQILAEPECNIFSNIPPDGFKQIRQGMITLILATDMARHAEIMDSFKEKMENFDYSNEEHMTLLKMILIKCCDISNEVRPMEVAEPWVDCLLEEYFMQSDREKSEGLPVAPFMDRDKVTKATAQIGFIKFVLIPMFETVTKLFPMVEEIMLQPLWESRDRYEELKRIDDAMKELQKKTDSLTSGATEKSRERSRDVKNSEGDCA
For `CC(=O)Nc1ccc(-c2c[nH]c(=O)cn2)cc1` [SKF94120], the “inhibition on the isolated enzyme” value is recorded as “no inhibition”.
With `COc1ccc(C2CNC(=O)C2)cc1OC1CCCC1` (stereo not drawn) [rolipram], the “inhibition on the isolated enzyme” value was “no inhibition”.
`CCOC(=O)C1=C[C@]2(CC)CCCN3CCc4c(n1c1ccccc41)[C@@H]32` [vinpocetine]: the “inhibition on the isolated enzyme” value is reported as “no inhibition”.
As to `CC(C)Cn1c(=O)n(C)c(=O)c2[nH]cnc21` [IBMX], the “inhibition on the isolated enzyme” value is given as “no inhibition”.
Turning to `OCCN(CCO)c1nc(N2CCCCC2)c2nc(N(CCO)CCO)nc(N3CCCCC3)c2n1` [dipyridamole], the “inhibition on the isolated enzyme” value is reported as “no inhibition”.

The target in a further data set is Murine PDE9A (Mus musculus (Mouse), UniProt O70628). The following applies: concentrations below 200 μM; cited from earlier work.
Murine PDE9A, sequence (O70628 whole entry): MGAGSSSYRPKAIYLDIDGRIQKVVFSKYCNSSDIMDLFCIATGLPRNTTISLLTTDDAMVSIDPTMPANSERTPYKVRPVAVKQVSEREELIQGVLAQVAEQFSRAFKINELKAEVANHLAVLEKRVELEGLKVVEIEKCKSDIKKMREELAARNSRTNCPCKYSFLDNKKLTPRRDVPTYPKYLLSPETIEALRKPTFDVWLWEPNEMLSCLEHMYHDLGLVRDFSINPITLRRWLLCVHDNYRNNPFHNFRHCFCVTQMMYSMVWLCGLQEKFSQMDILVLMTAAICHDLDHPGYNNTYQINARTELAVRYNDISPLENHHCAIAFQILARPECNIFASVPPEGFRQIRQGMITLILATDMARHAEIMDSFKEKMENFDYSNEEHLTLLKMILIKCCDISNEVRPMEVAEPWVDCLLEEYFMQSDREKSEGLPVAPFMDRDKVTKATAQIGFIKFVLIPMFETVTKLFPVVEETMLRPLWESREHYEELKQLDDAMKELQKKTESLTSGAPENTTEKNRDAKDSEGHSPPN
On to `CC(C)Cn1c(=O)n(C)c(=O)c2[nH]cnc21` [IBMX], for which the inhibition entry is recorded as “not inhibited”.
